Data published in ChEMBL document CHEMBL1135136, “Carbonic anhydrase inhibitors. Preparation of potent sulfonamides inhibitors incorporating bile acid tails” (Bioorg Med Chem Lett, 2002).

Key:
Carbonic anhydrase 2 = Carbonic anhydrase 2 (Homo sapiens, UniProt P00918)
Description: Inhibitory activity against human recombinant carbonic anhydrase II (CA2)

Carbonic anhydrase 1 = Carbonic anhydrase 1 (Homo sapiens, UniProt P00915)
Description: Inhibitory activity against human recombinant carbonic anhydrase I (CA1)

Carbonic anhydrase 4 = target: T1, Carbonic anhydrase 4 (Bos taurus, UniProt Q95323)
T1 sequence (Q95323 whole entry): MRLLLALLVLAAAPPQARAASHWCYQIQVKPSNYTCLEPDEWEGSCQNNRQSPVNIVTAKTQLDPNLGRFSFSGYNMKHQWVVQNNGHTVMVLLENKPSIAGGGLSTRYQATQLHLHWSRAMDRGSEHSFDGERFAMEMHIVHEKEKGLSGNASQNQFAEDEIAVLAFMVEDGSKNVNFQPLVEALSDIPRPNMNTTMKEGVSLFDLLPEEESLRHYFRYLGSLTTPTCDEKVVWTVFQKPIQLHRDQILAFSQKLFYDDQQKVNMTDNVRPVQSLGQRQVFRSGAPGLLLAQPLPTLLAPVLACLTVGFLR
Description: Inhibitory activity against bovine carbonic anhydrase IV (CA4), obtained from bovine lung microsomes

Chain of Carbonic anhydrase 1 (P00915 whole entry): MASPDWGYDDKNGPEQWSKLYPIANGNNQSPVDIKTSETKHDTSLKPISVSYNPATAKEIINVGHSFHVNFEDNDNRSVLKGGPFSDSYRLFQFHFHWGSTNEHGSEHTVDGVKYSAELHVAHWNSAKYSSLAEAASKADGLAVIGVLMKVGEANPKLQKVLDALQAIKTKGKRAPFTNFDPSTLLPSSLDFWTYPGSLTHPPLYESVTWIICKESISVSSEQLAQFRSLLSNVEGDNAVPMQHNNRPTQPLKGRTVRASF

Row | Structure (SMILES) | Ki (Carbonic anhydrase 2) | Ki (Carbonic anhydrase 1) | Ki (Carbonic anhydrase 4)
1 | C[C@H](CCC(=O)Nc1ccc(S(N)(=O)=O)cc1)[C@H]1CC[C@H]2[C@@H]3C(=O)C[C@@H]4CC(=O)CC[C@]4(C)[C@H]3CC(=O)[C@]12C | 70 nM | 3700 nM | 147 nM
2 | C[C@H](CCC(=O)NCc1ccc(S(N)(=O)=O)cc1)[C@H]1CC[C@H]2[C@@H]3[C@H](O)C[C@@H]4C[C@H](O)CC[C@]4(C)[C@H]3CC[C@]12C | 96 nM | 3450 nM | 244 nM
3 | C[C@H](CCC(=O)/N=c1\sc(S(N)(=O)=O)nn1C)[C@H]1CC[C@H]2[C@@H]3[C@H](O)C[C@@H]4C[C@H](O)CC[C@]4(C)[C@H]3CC[C@]12C | 13 nM | 514 nM | 100 nM
4 | C[C@H](CCC(=O)Nc1ccc2nc(S(N)(=O)=O)sc2c1)[C@H]1CC[C@H]2[C@@H]3CC[C@@H]4C[C@H](O)CC[C@]4(C)[C@H]3CC[C@]12C | 2.8 nM | 48 nM | 9 nM
5 | C[C@H](CCC(=O)OCCc1ccc(S(N)(=O)=O)cc1)[C@H]1CC[C@H]2[C@@H]3[C@@H](O)C[C@@H]4C[C@H](O)CC[C@]4(C)[C@H]3CC[C@]12C | 58 nM | 350 nM | 160 nM
6 | C[C@H](CCC(=O)Nc1cc(Cl)c(S(N)(=O)=O)cc1S(N)(=O)=O)[C@H]1CC[C@H]2[C@@H]3CC[C@@H]4C[C@H](O)CC[C@]4(C)[C@H]3CC[C@]12C | 54 nM | 200 nM | 82 nM
7 | C[C@H](CCC(=O)OCCOc1ccc2nc(S(N)(=O)=O)sc2c1)[C@H]1CC[C@H]2[C@@H]3[C@H](O)C[C@@H]4C[C@H](O)CC[C@]4(C)[C@H]3C[C@H](O)[C@]12C | 3 nM | 39 nM | 10 nM
8 | C[C@H](CCC(=O)Nc1ccc(S(N)(=O)=O)cc1F)[C@H]1CC[C@H]2[C@@H]3[C@H](O)C[C@@H]4C[C@H](O)CC[C@]4(C)[C@H]3C[C@H](O)[C@]12C | 50 nM | 1280 nM | 133 nM
9 | C[C@H](CCC(=O)Nc1ccc(S(N)(=O)=O)cc1Cl)[C@H]1CC[C@H]2[C@@H]3[C@H](O)C[C@@H]4C[C@H](O)CC[C@]4(C)[C@H]3C[C@H](O)[C@]12C | 82 nM | 970 nM | 168 nM
10 | C[C@H](CCC(=O)Nc1ccc(S(N)(=O)=O)cc1Br)[C@H]1CC[C@H]2[C@@H]3CC[C@@H]4C[C@H](O)CC[C@]4(C)[C@H]3C[C@H](O)[C@]12C | 31 nM | 365 nM | 50 nM
11 | C[C@H](CCC(=O)Nc1ccccc1S(N)(=O)=O)[C@H]1CC[C@H]2[C@@H]3[C@H](O)C[C@@H]4C[C@H](O)CC[C@]4(C)[C@H]3C[C@H](O)[C@]12C | 275 nM | 25500 nM | 1200 nM
12 | C[C@H](CCC(=O)Nc1ccc(S(N)(=O)=O)cc1Cl)[C@H]1CC[C@H]2[C@@H]3CC[C@@H]4C[C@H](O)CC[C@]4(C)[C@H]3CC[C@]12C | 47 nM | 720 nM | 54 nM
13 | C[C@H](CCC(=O)NCCC(=O)Nc1nnc(S(N)(=O)=O)s1)[C@H]1CC[C@H]2[C@@H]3C(=O)C[C@@H]4CC(=O)CC[C@]4(C)[C@H]3CC(=O)[C@]12C | 1.1 nM | 22 nM | 7 nM
14 | C[C@H](CCC(=O)Nc1cccc(S(N)(=O)=O)c1)[C@H]1CC[C@H]2[C@@H]3[C@@H](O)C[C@@H]4C[C@H](O)CC[C@]4(C)[C@H]3CC[C@]12C | 157 nM | 7050 nM | 480 nM
15 | C[C@H](CCC(=O)Nc1c(S(N)(=O)=O)cc(S(N)(=O)=O)c(Cl)c1Cl)[C@H]1CC[C@H]2[C@@H]3[C@H](O)C[C@@H]4C[C@H](O)CC[C@]4(C)[C@H]3CC[C@]12C | 21 nM | 343 nM | 95 nM
16 | C[C@H](CCC(=O)Nc1ccccc1S(N)(=O)=O)[C@H]1CC[C@H]2[C@@H]3CC[C@@H]4C[C@H](O)CC[C@]4(C)[C@H]3CC[C@]12C | 270 nM | 9200 nM | 750 nM
17 | C[C@H](CCC(=O)Nc1ccc(S(N)(=O)=O)cc1I)[C@H]1CC[C@H]2[C@@H]3CC[C@@H]4C[C@H](O)CC[C@]4(C)[C@H]3CC[C@]12C | 32 nM | 120 nM | 69 nM
18 | C[C@H](CCC(=O)OCCc1ccc(S(N)(=O)=O)cc1)[C@H]1CC[C@H]2[C@@H]3CC[C@@H]4C[C@H](O)CC[C@]4(C)[C@H]3CC[C@]12C | 81 nM | 625 nM | 310 nM
19 | C[C@H](CCC(=O)Nc1nnc(S(N)(=O)=O)s1)[C@H]1CC[C@H]2[C@@H]3CC[C@@H]4C[C@H](O)CC[C@]4(C)[C@H]3CC[C@]12C | 10 nM | 210 nM | 28 nM

Row | Structure (SMILES) | Ki (Carbonic anhydrase 2) | Ki (Carbonic anhydrase 1) | Ki (Carbonic anhydrase 4)
20 | C[C@H](CCC(=O)Nc1nnc(S(N)(=O)=O)s1)[C@H]1CC[C@H]2[C@@H]3[C@H](O)C[C@@H]4C[C@H](O)CC[C@]4(C)[C@H]3CC[C@]12C | 52 nM | 410 nM | 240 nM
21 | C[C@H](CCC(=O)Nc1cc(Cl)c(S(N)(=O)=O)cc1S(N)(=O)=O)[C@H]1CC[C@H]2[C@@H]3[C@H](O)C[C@@H]4C[C@H](O)CC[C@]4(C)[C@H]3C[C@H](O)[C@]12C | 56 nM | 400 nM | 130 nM
22 | C[C@H](CCC(=O)OCc1ccc(S(N)(=O)=O)cc1)[C@H]1CC[C@H]2[C@@H]3CC[C@@H]4C[C@H](O)CC[C@]4(C)[C@H]3CC[C@]12C | 92 nM | 800 nM | 313 nM
23 | C[C@H](CCC(=O)Nc1ccc(S(N)(=O)=O)cc1F)[C@H]1CC[C@H]2[C@@H]3CC[C@@H]4C[C@H](O)CC[C@]4(C)[C@H]3CC[C@]12C | 29 nM | 360 nM | 36 nM
24 | C[C@H](CCC(=O)Nc1cc(Cl)c(S(N)(=O)=O)cc1S(N)(=O)=O)[C@H]1CC[C@H]2[C@@H]3[C@H](O)C[C@@H]4C[C@H](O)CC[C@]4(C)[C@H]3CC[C@]12C | 62 nM | 300 nM | 143 nM
25 | C[C@H](CCC(=O)NNc1ccc(S(N)(=O)=O)cc1)[C@H]1CC[C@H]2[C@@H]3[C@H](O)C[C@@H]4C[C@H](O)CC[C@]4(C)[C@H]3C[C@H](O)[C@]12C | 315 nM | 32100 nM | 1050 nM
26 | C[C@H](CCC(=O)NCCc1ccc(S(N)(=O)=O)cc1)[C@H]1CC[C@H]2[C@@H]3[C@H](O)C[C@@H]4C[C@H](O)CC[C@]4(C)[C@H]3CC[C@]12C | 86 nM | 3300 nM | 235 nM
27 | C[C@H](CCC(=O)Nc1ccc(S(N)(=O)=O)cc1)[C@H]1CC[C@H]2[C@@H]3[C@H](O)C[C@@H]4C[C@H](O)CC[C@]4(C)[C@H]3CC[C@]12C | 186 nM | 20000 nM | 420 nM
28 | C[C@H](CCC(=O)OCc1ccc(S(N)(=O)=O)cc1)[C@H]1CC[C@H]2[C@@H]3C(=O)C[C@@H]4CC(=O)CC[C@]4(C)[C@H]3CC(=O)[C@]12C | 71 nM | 450 nM | 200 nM
29 | C[C@H](CCC(=O)NCCc1ccc(S(N)(=O)=O)cc1)[C@H]1CC[C@H]2[C@@H]3[C@H](O)C[C@@H]4C[C@H](O)CC[C@]4(C)[C@H]3C[C@H](O)[C@]12C | 86 nM | 3400 nM | 220 nM
30 | C[C@H](CCC(=O)Nc1ccc(S(N)(=O)=O)cc1Br)[C@H]1CC[C@H]2[C@@H]3CC[C@@H]4C[C@H](O)CC[C@]4(C)[C@H]3CC[C@]12C | 21 nM | 120 nM | 53 nM
31 | C[C@H](CCC(=O)NNc1ccc(S(N)(=O)=O)cc1)[C@H]1CC[C@H]2[C@@H]3C(=O)C[C@@H]4CC(=O)CC[C@]4(C)[C@H]3CC(=O)[C@]12C | 260 nM | 12800 nM | 550 nM
32 | C[C@H](CCC(=O)NCc1ccc(S(N)(=O)=O)cc1)[C@H]1CC[C@H]2[C@@H]3[C@@H](O)C[C@@H]4C[C@H](O)CC[C@]4(C)[C@H]3CC[C@]12C | 21 nM | 550 nM | 40 nM
33 | C[C@H](CCC(=O)NCCc1ccc(S(N)(=O)=O)cc1)[C@H]1CC[C@H]2[C@@H]3CC[C@@H]4C[C@H](O)CC[C@]4(C)[C@H]3CC[C@]12C | 41 nM | 650 nM | 70 nM
34 | C[C@H](CCC(=O)Oc1ccc2nc(S(N)(=O)=O)sc2c1)[C@H]1CC[C@H]2[C@@H]3[C@@H](O)C[C@@H]4C[C@H](O)CC[C@]4(C)[C@H]3CC[C@]12C | 0.7 nM | 31 nM | 6 nM
35 | C[C@H](CCC(=O)Nc1c(S(N)(=O)=O)cc(S(N)(=O)=O)c(Cl)c1Cl)[C@H]1CC[C@H]2[C@@H]3[C@@H](O)C[C@@H]4C[C@H](O)CC[C@]4(C)[C@H]3CC[C@]12C | 10 nM | 59 nM | 29 nM
36 | C[C@H](CCC(=O)Oc1ccc2nc(S(N)(=O)=O)sc2c1)[C@H]1CC[C@H]2[C@@H]3CC[C@@H]4C[C@H](O)CC[C@]4(C)[C@H]3CC[C@]12C | 2 nM | 40 nM | 9 nM
37 | C[C@H](CCC(=O)Nc1nnc(S(N)(=O)=O)s1)[C@H]1CC[C@H]2[C@@H]3[C@@H](O)C[C@@H]4C[C@H](O)CC[C@]4(C)[C@H]3CC[C@]12C | 0.9 nM | 48 nM | 16 nM
